Measured values as given in patent US20230312571A1, “RING-MODIFIED PROLINE SHORT PEPTIDE COMPOUND AND USE THEREOF” (priority 2021, published 2023).
pEC50, pIC50: −log10 of the molar value. Read-outs that look alike come from different tables or passages of the source.

How the values were obtained:
[1] = molecular target: SARS-CoV-2 Mpro (Severe acute respiratory syndrome coronavirus 2 (2019-nCoV) (SARS-CoV-2), UniProt P0DTD1); test: In vitro anti-novel coronavirus Mpro protease activity (fluorescent substrate cleavage); format: biochemical
Method: The compound was dissolved in DMSO, and diluted in a 3-fold gradient with Echo655 according to the concentration requirements to 10 concentration points, and duplicate tests were set at each concentration, and the diluted solution was added to a 384-well plate. Mpro protein and substrate were diluted with test buffer (100 mM NaCl, 20 mM Tris-HCl, 1 mM EDTA), and Mpro protein was added to the 384-well test plate, incubated with the compound for 30 min at room temperature, and then the substrate was added thereto, and the test concentration of Mpro protein was 25 nM, and the test concentration of substrate was 25 µM. After incubating for 60 minutes in a 30° C. constant temperature incubator, the fluorescence signal value of Ex/Em=340 nm/490 nm was detected by microplate reader. At the same time, the background well containing the substrate and compound but not containing Mpro protein was detected as control.

[2] = system: SARS-CoV-2 virus (Novel coronavirus βCoV/KOR/KCDC03/2020 strain); test: Anti-novel coronavirus activity in Vero cells (immunofluorescence, high-content imaging); format: cell-based; conditions: Severe acute respiratory syndrome coronavirus 2, wild-type novel coronavirus, MOI=0.0125, 24 hours
[3] = in vitro; conditions: African green monkey
[4] = Cytotoxicity in the cytopathic model, without virus infection (CellTiter Glo); conditions: human
[5] = system: coronavirus HCoV OC43; test: In vitro anti-coronavirus activity by cytopathic model (CPE, CellTiter Glo); format: cell-based; conditions: HCoV OC43 100 TCID50/well, MRC5 cells, 5 days
Method: MRC5 cells and coronavirus HCoV OC43 were purchased from ATCC.
MRC5 cells were cultured in MEM (Sigma) medium supplemented with 10% fetal bovine serum (Excell), 1% double antibody (Hyclone), 1%L-glutamine (Gibco) and 1% non-essential amino acids (Gibco). MEM (Sigma) medium supplemented with 5% fetal bovine serum (Excell), 1% double antibody (Hyclone), 1% L-glutamine (Gibco) and 1% non-essential amino acid (Gibco) was used as the experimental culture medium.
Cells were inoculated into a 96 microwell plate at a certain density (Table 6) and cultured overnight in an incubator at 5% CO2 and 37° C. On the second day, the compound was added after doubling dilution (8 concentration points, duplicate wells), with 50 µL per well. Then the diluted virus was added to the cells at 100 TCID50 per well, 50 µL per well. Cell control (cell without compound treatment or virus infection), virus control (cell infected with virus without compound treatment) and culture medium control (only culture medium) were set. The final volume of the culture medium in this experiment was 200 µL, and the final concentration of DMSO in the culture medium was 0.5%. Cells were cultured in a 5% CO2, 33° C. incubator for 5 days. Cell viability was detected using the cell viability assay kit CellTiter Glo (Promega). Cytotoxicity experiments were performed under the same conditions as antiviral experiments, but without virus infection.
The antiviral activity and cytotoxicity of the compound were represented by the inhibition rate (%) and cell viability (%) of the compound on the cytopathic effect caused by the virus at different concentrations, respectively. The calculation formula is as follows: […]
GraphPad Prism was used to perform nonlinear fitting analysis on the inhibition rate and cell viability of the compound, and the half effective concentration (EC50) and half cytotoxic concentration (CC50) of the compound were calculated.

[6] = system: Vero cells; conditions: 24 hours
[7] = design: species or system C57BL/6J male mice; conditions: mouse, in vivo, po, 10 mg/kg
Method: In this study, C57BL/6J male mice were selected as test animals, and the LC/MS/MS method was used to quantitatively measure the plasma concentrations of mice in combination with Ritonavir at different time points, so as to evaluate the pharmacokinetic characteristics of the test drug in mice.
Firstly, 10 mpk of Ritonavir was administered to mice by intragastric administration at -12 h and 0 h, and then the test compound was dissolved in 30% PEG400+70% normal saline solution and administered to mice by intragastric administration (overnight fasting, 6 to 8 weeks old). 25 µL of blood was collected at 0.083, 0.25, 0.5, 1, 2, 4, 8, 12 and 24 hours after administration to animals, placed in a commercial anticoagulant tube pre-added with EDTA-K2, and centrifuged at 4° C., 3200 g for 10 min to obtain plasma. After the plasma samples were treated, the plasma concentration was determined by LC-MS/MS method.

[8] = Tissue distribution test in rats (plasma and lung, with Ritonavir); format: in vivo, SD male rats; conditions: 30 mpk p.o. with Ritonavir 10 mpk
Method: In this study, SD male rats were selected as test animals, and the drug concentrations of test compounds in plasma and lungs of rats at different time points were quantitatively measured by LC/MS/MS method to evaluate the pharmacokinetic characteristics of test drugs in rats.
Firstly, 10 mpk of Ritonavir was administered to rats by intragastric administration at -12 h and 0 h, and 30 mpk of the test compound was dissolved in 10% Solutol + 30% PEG 400 + 2% Tween 80+H2O 58% solution and administered to rats by intragastric administration (overnight fasting). 40 µL of blood was collected from the saphenous vein of rats at 0.25, 1 and 6 hours after administration, placed in an anticoagulant tube added with EDTA-K2, centrifuged at 4° C., 3200 g for 10 min to obtain plasma, and some animals were killed at 0.25, 1 and 6 hours respectively to collect lung tissue. After the plasma samples were treated, the plasma concentration was determined by LC-MS/MS method.

[9] = system: MRC5 cells
[10] = design: species or system C57BL/6J male mice; conditions: mouse, in vivo
Method: In this study, C57BL/6J male mice were selected as test animals, and LC/MS/MS method was used to quantitatively measure the plasma concentration of the test compound 11 at different time points after oral administration and injection in mice, so as to evaluate the pharmacokinetic characteristics of the test drug in mice.
The test compound dissolved in 30% PEG400+70% normal saline was administered to mice (overnight fasting, 6-8 weeks old) by intragastric administration. 25 µL of blood was collected at 0.083, 0.25, 0.5, 1, 2, 4, 8, 12 and 24 hours after administration, respectively, and placed in commercial anticoagulation tubes pre-added with EDTA-K2, centrifuged at 4° C., 3200 g for 10 min to obtain plasma, and after the plasma sample was treated, the plasma concentration was determined by LC-MS/MS method.

[11] = 25 nM Mpro protein, 25 µM substrate, read-out: IC50

N#C[C@H](C[C@@H]1CCNC1=O)NC(=O)[C@@H]1[C@H]2CC[C@H](C2)N1C(=O)[C@@H](NC(=O)C(F)(F)F)C12CC3CC(CC(C3)C1)C2 [Compound 3]
pIC50 [1]: 7.68 | pEC50 [2]: 7.46 | CC50 [3]: > 5000 nM | CC50 at 5 days [4]: > 10000 nM | pEC50 ([5]; Betacoronavirus 1, 120 h): 7.21

N#C[C@H](C[C@@H]1CCNC1=O)NC(=O)[C@@H]1[C@H]2CC[C@H](C2)N1C(=O)[C@@H](NC(=O)C(F)(F)F)C12CCC(CC1)CC2 [Compound 4]
pIC50 [1]: 7.28 | pEC50 [2]: 7.52 | CC50 [3]: > 5000 nM | CC50 at 5 days [4]: > 10000 nM | pEC50 ([5]; Betacoronavirus 1, 120 h): 6.85

CC1C[C@H]2C[C@@H]1N(C(=O)[C@@H](NC(=O)C(F)(F)F)C(C)(C)C)[C@@H]2C(=O)N[C@H](C#N)C[C@@H]1CCNC1=O (stereo partly shown) [Compound 5]
pEC50 [2]: 7.70 | CC50 [3]: > 5000 nM | CC50 at 5 days [4]: > 10000 nM | pEC50 ([5]; Betacoronavirus 1, 120 h): 6.69

CC(C)(C)[C@H](NC(=O)C(F)(F)F)C(=O)N1[C@H]2C[C@@H]([C@H]1C(=O)N[C@H](C#N)C[C@@H]1CCNC1=O)C(F)(F)C2 [Compound 6]
pIC50 [1]: 6.87

CC1([C@H](NC(=O)C(F)(F)F)C(=O)N2[C@@H]3CC[C@@H](C3)[C@H]2C(=O)N[C@H](C#N)C[C@@H]2CCNC2=O)CCCCC1 [Compound 7]
pIC50 [1]: 7.21

CC(C)(C)[C@H](NC(=O)C(F)(F)F)C(=O)N1[C@H]2C[C@@H]([C@H]1C(=O)N[C@H](C#N)C[C@@H]1CCNC1=O)C(F)(F)C2 [Compound 10]
pIC50 [1, 11]: 7.77

CC(C)(C)[C@H](NC(=O)C(F)(F)F)C(=O)N1[C@H]2C[C@@H]([C@H]1C(=O)N[C@H](C#N)C[C@@H]1CCNC1=O)C1(CC1)C2 [Compound 11]
CC50 [6]: > 5000 nM | pIC50 [1, 11]: 8.27 | AUC0-last [7]: 28.683 µM·h | Cmax [7]: 10.1 µM | Tmax [7]: 30 min | Ratio lung/plasma of AUC(0-6 h) [8]: 2.6/1 | Ratio lung/plasma ([8]; 0.25 h): 5.5/1 | Ratio lung/plasma ([8]; 1 h): 3.2/1 | Ratio lung/plasma ([8]; 6 h): 1.6/1 | CC50 [9]: > 10000 nM | AUC0-last ([10]; iv, 3 mg/kg): 1.447 µM·h | CL ([10]; iv, 3 mg/kg): 68.5 mL/min/kg | T½ ([10]; iv, 3 mg/kg): 12 min | Vdss ([10]; iv, 3 mg/kg): 0.9 L/kg | AUC0-last ([10]; po, 10 mg/kg): 1.519 µM·h | Cmax ([10]; po, 10 mg/kg): 1.85 µM | Tmax ([10]; po, 10 mg/kg): 15 min | pEC50 [5]: 8.46

CC1C[C@@H]2C[C@H]1[C@@H](C(=O)N[C@H](C#N)C[C@@H]1CCNC1=O)N2C(=O)[C@@H](NC(=O)C(F)(F)F)C12CC3CC(CC(C3)C1)C2 (stereo partly shown) [Compound 12]
pIC50 [1, 11]: 7.77

Cc1ccc(CC(=O)N[C@H](C(=O)N2[C@@H]3CC[C@@H](C3)[C@H]2C(=O)N[C@H](C#N)C[C@@H]2CCNC2=O)C23CC4CC(CC(C4)C2)C3)cc1 [Compound 13]
pIC50 [1, 11]: 7.12
